This is an account of results in ChEMBL document CHEMBL1145868, “Small, low nanomolar, noncovalent thrombin inhibitors lacking a group to fill the 'distal binding pocket'” (Bioorg Med Chem Lett, 2003).

pKi: −log10 of the molar value. A value given as a limit tells only on which side of the number the result lay.

The species entered for test [1] is Homo sapiens. Put plainly: Concentration required to double the human activated partial thromboplastin time in human plasma. Format: functional.
The target in test [2] is Trypsin (Homo sapiens, UniProt P07477+P07478+P35030). The test can be described thus: Inhibition of trypsin in human plasma. Format: cell-free.
The target of test [3] is Prothrombin (Homo sapiens, UniProt P00734). Put plainly: Inhibition of thrombin in human plasma. Format: cell-free.
The species named for test [4] is Homo sapiens. The test can be described thus: Protein binding affinity in human plasma, expressed as percent unbound (free). Format: functional.

As a reminder, the Ki is a dissociation constant, usually derived from enzyme kinetics or from competition with a known ligand. A high value points to weaker binding. As a reminder, the pKi is the Ki on a negative log10 scale, so that one unit is a factor of ten. As to `CNC(=O)COc1ccc(Cl)cc1CNC(=O)Cn1c(C)cc(C(F)(F)F)c(N)c1=O`, in test [1], the Concentration was determined as 2.5 µM. Further, in test [2], the Ki is listed as 7100 nM. In test [3], this compound showed a pKi of 7.82.

The compound `Cc1ccc(NS(=O)(=O)Cc2ccccc2)c(=O)n1CC(=O)NCc1cccc(Cl)c1` yielded a Concentration in test [1] of 2.8 µM. Also, the Ki in test [2] is listed as 20000 nM. Further, the pKi in test [3] is 8.15.

Compound `CCNC(=O)COc1ccc(Cl)cc1CNC(=O)Cn1c(C)ccc(NS(=O)(=O)Cc2ccccc2)c1=O` returned a Concentration in test [1] of 0.79 µM. In test [2], this compound returned a Ki of 2000 nM. Also, the pKi in test [3] was 10.40.

Consider `CCNC(=O)COc1ccc(Cl)cc1CNC(=O)Cn1c(C)cnc(N)c1=O`, for which the Concentration in test [1] turned out to be 1.6 µM. In test [2], the Ki turned out to be 7200 nM. Also, the Unbound in test [4] worked out at 20%. The negative-log Ki (pKi) in test [3] was 7.92.

In the case of `Cc1ccc(NS(=O)(=O)Cc2ccccc2)c(=O)n1CC(=O)NCc1cc(Cl)ccc1Cl`, in test [1], the Concentration amounted to 2.7 µM. The Ki in test [2] is listed as 100000 nM. This compound had a pKi in test [3] of 7.62.

For the compound `CCNC(=O)COc1ccc(Cl)cc1CNC(=O)Cn1c(C)cc(C(F)(F)F)c(N)c1=O`, in test [1], the Concentration amounted to 2.1 µM. The Ki in test [2] turned out to be 10000 nM. This compound also showed a pKi in test [3] of 8.07.

As for `Cc1cc(C(F)(F)F)c(N)c(=O)n1CC(=O)NCc1cc(Cl)ccc1OCC(=O)N(C)C`, in test [2], the Ki is given as > 100000 nM.

As to `Cc1nc(N)ccc1CNC(=O)Cn1c(C)cnc(NCCc2ccccc2)c1=O` [L-375378], in test [1], the Concentration was 0.41 µM. This compound also registered a Ki in test [2] of 1800 nM. In test [4], this compound returned an Unbound of 6%.

`Cc1cc(C(F)(F)F)c(N)c(=O)n1CC(=O)NCc1cc(Cl)ccc1OCC(=O)NCCN(C)C` displayed a Concentration in test [1] of 1.3 µM. Besides, in test [2], the Ki amounted to 14000 nM. Moreover, the pKi in test [3] is 7.74.

The compound `CCNC(=O)COc1ccc(Cl)cc1CNC(=O)[C@@H]1CCCN1C(=O)[C@H](N)C1CCCCC1` returned a Concentration in test [1] of 0.41 µM. For the same compound, the Ki in test [2] is reported as 23000 nM. In test [4], this compound displayed an Unbound of 15%.

`Cc1nc(N)ccc1CNC(=O)Cn1c(C)cc(C(F)(F)F)c(N)c1=O` gave an inhibitory constant (Ki) in test [2] of 20000 nM. The compound also showed a negative logarithm of the Ki (pKi) in test [3] of 6.47.

In turn, `Cc1cc(C(F)(F)F)c(N)c(=O)n1CC(=O)NCc1cc(Cl)ccc1OCC(=O)NCCCN(C)C` registered a Concentration in test [1] of 0.7 µM. The same compound returned a Ki in test [2] of 11000 nM. This compound yielded an Unbound in test [4] of 18%. The pKi in test [3] is 8.13.

Turning to `N[C@@H](C(=O)N1CCC[C@H]1C(=O)NCc1cc(Cl)ccc1Cl)C1CCCCC1`, the Concentration in test [1] is 0.95 µM. In test [2], this compound displayed a Ki of 29000 nM. Also, the Unbound in test [4] was 4%.

As for `CCNC(=O)COc1ccc(Cl)cc1CNC(=O)Cn1c(C)cnc(NCCc2ccccc2)c1=O`, the Concentration in test [1] turned out to be 1.2 µM. The inhibition constant (Ki) in test [2] came out at 1000 nM. The same compound registered an Unbound in test [4] of 1%. For the same compound, the pKi in test [3] is 10.15.

The compound `Cc1nc(N)ccc1CNC(=O)Cn1c(C)cnc(N)c1=O` came in with a Ki in test [2] of 23000 nM. The same compound showed a pKi in test [3] of 6.05.
